{
  "source": "the supplement of paper PMC5303821",
  "about": "“Major sulfonate transporter Soa1 in Saccharomyces cerevisiae and considerable substrate diversity in its fungal family” (Nature Communications, 2017)",
  "settings_in_all_cases": "sulfur source concentration 200 µM; S. cerevisiae S288C/BY sul1Δ sul2Δ soa1Δ with transporter ortholog inserted at SOA1 locus; sulfur-free B medium, 4% glucose, pH 6.5, sole sulfur source",
  "key": {"[1]": {"system": "Metarhizium robertsii_XP_007822519", "assay": "lag phase before growth; higher = slower start of growth"}, "[2]": {"system": "Ogataea parapolymorpha_XP_013935289", "assay": "lag phase before growth; higher = slower start of growth"}, "[3]": {"system": "Saccharomyces cerevisiae_SOA1", "assay": "lag phase before growth; higher = slower start of growth"}, "[4]": {"system": "Saccharomyces eubayanus_SOA1", "assay": "lag phase before growth; higher = slower start of growth"}, "[5]": {"system": "Saccharomyces uvarum_SOA1", "assay": "lag phase before growth; higher = slower start of growth"}, "[6]": {"system": "Saccharomyces uvarum_SOA2", "assay": "lag phase before growth; higher = slower start of growth"}, "[7]": {"system": "Aspergillus nidulans (IAM 2006)_astA", "assay": "maximal culture density with compound as sole sulfur source (OD600); higher = better growth"}, "[8]": {"system": "Aspergillus nidulans_XP_661711", "assay": "maximal culture density with compound as sole sulfur source (OD600); higher = better growth"}, "[9]": {"system": "Aspergillus nidulans_XP_661733", "assay": "maximal culture density with compound as sole sulfur source (OD600); higher = better growth"}, "[10]": {"system": "Metarhizium robertsii_XP_007822519", "assay": "maximal culture density with compound as sole sulfur source (OD600); higher = better growth"}, "[11]": {"system": "Ogataea parapolymorpha_XP_013935289", "assay": "maximal culture density with compound as sole sulfur source (OD600); higher = better growth"}, "[12]": {"system": "Saccharomyces cerevisiae_SOA1", "assay": "maximal culture density with compound as sole sulfur source (OD600); higher = better growth"}, "[13]": {"system": "Saccharomyces uvarum_SOA1", "assay": "maximal culture density with compound as sole sulfur source (OD600); higher = better growth"}, "[14]": {"system": "Saccharomyces uvarum_SOA2", "assay": "maximal culture density with compound as sole sulfur source (OD600); higher = better growth"}, "[15]": {"system": "Aspergillus nidulans (IAM 2006)_astA", "assay": "maximal growth rate with compound as sole sulfur source (OD600 per h); higher = better growth / uptake of the sulfur source"}, "[16]": {"system": "Aspergillus nidulans_CBF74694", "assay": "maximal growth rate with compound as sole sulfur source (OD600 per h); higher = better growth / uptake of the sulfur source"}, "[17]": {"system": "Aspergillus nidulans_CBF80346", "assay": "maximal growth rate with compound as sole sulfur source (OD600 per h); higher = better growth / uptake of the sulfur source"}, "[18]": {"system": "Aspergillus nidulans_XP_660563", "assay": "maximal growth rate with compound as sole sulfur source (OD600 per h); higher = better growth / uptake of the sulfur source"}, "[19]": {"system": "Aspergillus nidulans_XP_660670", "assay": "maximal growth rate with compound as sole sulfur source (OD600 per h); higher = better growth / uptake of the sulfur source"}, "[20]": {"system": "Aspergillus nidulans_XP_661711", "assay": "maximal growth rate with compound as sole sulfur source (OD600 per h); higher = better growth / uptake of the sulfur source"}, "[21]": {"system": "Aspergillus nidulans_XP_661733", "assay": "maximal growth rate with compound as sole sulfur source (OD600 per h); higher = better growth / uptake of the sulfur source"}, "[22]": {"system": "Aspergillus nidulans_XP_681611", "assay": "maximal growth rate with compound as sole sulfur source (OD600 per h); higher = better growth / uptake of the sulfur source"}, "[23]": {"system": "Fusarium oxysporum_ENH65823", "assay": "maximal growth rate with compound as sole sulfur source (OD600 per h); higher = better growth / uptake of the sulfur source"}, "[24]": {"system": "Metarhizium robertsii_XP_007821441", "assay": "maximal growth rate with compound as sole sulfur source (OD600 per h); higher = better growth / uptake of the sulfur source"}, "[25]": {"system": "Metarhizium robertsii_XP_007822519", "assay": "maximal growth rate with compound as sole sulfur source (OD600 per h); higher = better growth / uptake of the sulfur source"}, "[26]": {"system": "Metarhizium robertsii_XP_007823832", "assay": "maximal growth rate with compound as sole sulfur source (OD600 per h); higher = better growth / uptake of the sulfur source"}, "[27]": {"system": "Ogataea parapolymorpha_XP_013932458", "assay": "maximal growth rate with compound as sole sulfur source (OD600 per h); higher = better growth / uptake of the sulfur source"}, "[28]": {"system": "Ogataea parapolymorpha_XP_013935289", "assay": "maximal growth rate with compound as sole sulfur source (OD600 per h); higher = better growth / uptake of the sulfur source"}, "[29]": {"system": "Ogataea parapolymorpha_XP_013936897", "assay": "maximal growth rate with compound as sole sulfur source (OD600 per h); higher = better growth / uptake of the sulfur source"}, "[30]": {"system": "Saccharomyces cerevisiae_SOA1", "assay": "maximal growth rate with compound as sole sulfur source (OD600 per h); higher = better growth / uptake of the sulfur source"}, "[31]": {"system": "Saccharomyces eubayanus_SOA1", "assay": "maximal growth rate with compound as sole sulfur source (OD600 per h); higher = better growth / uptake of the sulfur source"}, "[32]": {"system": "Saccharomyces eubayanus_SOA2", "assay": "maximal growth rate with compound as sole sulfur source (OD600 per h); higher = better growth / uptake of the sulfur source"}, "[33]": {"system": "Saccharomyces uvarum_SOA1", "assay": "maximal growth rate with compound as sole sulfur source (OD600 per h); higher = better growth / uptake of the sulfur source"}, "[34]": {"system": "Saccharomyces uvarum_SOA2", "assay": "maximal growth rate with compound as sole sulfur source (OD600 per h); higher = better growth / uptake of the sulfur source"}, "soa1 del": {"system": "soa1 del", "assay": "maximal growth rate with compound as sole sulfur source (OD600 per h); higher = better growth / uptake of the sulfur source"}},
  "data": [
    {"smiles": "O=S(O)O", "note": "[sulfite]", "values": [
      {"measurement": "lag phase before growth", "setting": "[1]", "value": 0.981, "unit": "h"},
      {"measurement": "lag phase before growth", "setting": "[2]", "value": 5.63, "unit": "h"},
      {"measurement": "lag phase before growth", "setting": "[3]", "value": 6.67, "unit": "h"},
      {"measurement": "lag phase before growth", "setting": "[4]", "value": 6.97, "unit": "h"},
      {"measurement": "lag phase before growth", "setting": "[5]", "value": 5.95, "unit": "h"},
      {"measurement": "lag phase before growth", "setting": "[6]", "value": 11, "unit": "h"},
      {"measurement": "maximal culture density", "setting": "[7]", "value": 1.6},
      {"measurement": "maximal culture density", "setting": "[8]", "value": 0.244},
      {"measurement": "maximal culture density", "setting": "[9]", "value": 0.274},
      {"measurement": "maximal culture density", "setting": "[10]", "value": 1},
      {"measurement": "maximal culture density", "setting": "[11]", "value": 1.61},
      {"measurement": "maximal culture density", "setting": "[12]", "value": 1.6},
      {"measurement": "maximal culture density", "setting": "[13]", "value": 1.61},
      {"measurement": "maximal culture density", "setting": "[14]", "value": 1.44},
      {"measurement": "maximal growth rate", "setting": "[15]", "value": 0.104},
      {"measurement": "maximal growth rate", "setting": "[16]", "value": 0.00286},
      {"measurement": "maximal growth rate", "setting": "[17]", "value": 0.00484},
      {"measurement": "maximal growth rate", "setting": "[18]", "value": 0.00646},
      {"measurement": "maximal growth rate", "setting": "[19]", "value": 0.00402},
      {"measurement": "maximal growth rate", "setting": "[20]", "value": 0.004},
      {"measurement": "maximal growth rate", "setting": "[21]", "value": 0.0047},
      {"measurement": "maximal growth rate", "setting": "[22]", "value": 0.00588},
      {"measurement": "maximal growth rate", "setting": "[23]", "value": 0.00381},
      {"measurement": "maximal growth rate", "setting": "[24]", "value": 0.00339},
      {"measurement": "maximal growth rate", "setting": "[25]", "value": 0.0114},
      {"measurement": "maximal growth rate", "setting": "[26]", "value": 0.0855},
      {"measurement": "maximal growth rate", "setting": "[27]", "value": 0.0051},
      {"measurement": "maximal growth rate", "setting": "[28]", "value": 0.0989},
      {"measurement": "maximal growth rate", "setting": "[29]", "value": 0.00463},
      {"measurement": "maximal growth rate", "setting": "[30]", "value": 0.12},
      {"measurement": "maximal growth rate", "setting": "[31]", "value": 0.0839},
      {"measurement": "maximal growth rate", "setting": "[32]", "value": 0.00564},
      {"measurement": "maximal growth rate", "setting": "[33]", "value": 0.0915},
      {"measurement": "maximal growth rate", "setting": "[34]", "value": 0.0556},
      {"measurement": "maximal growth rate", "setting": "soa1 del", "value": 0.00378}
    ]}
  ]
}
